Our source for the Activity values is ChEMBL document CHEMBL3044636, “Effectiveness of five insecticides for the control of adults and young stages of Cacopsylla melanoneura (Förster) (Hemiptera: Psyllidae) in a semi-field trial” (2010).

Test [1] has as its system Cacopsylla melanoneura. The test can be described thus: Insecticidal activity against adult of Cacopsylla melanoneura in apple plant assessed as overwintered female mortality at 16.6 g/ha treated for 7 days measured after 3 days relative to control. The class given is functional.
Test [2] deals with Cacopsylla melanoneura. Nature of the test: Insecticidal activity against young stage of Cacopsylla melanoneura in apple plant assessed as mortality at 16.6 g/ha treated for 7 days measured after 7 days relative to control. In kind it is functional.
Test [3] concerns Cacopsylla melanoneura. The test can be described thus: Insecticidal activity against adult of Cacopsylla melanoneura in apple plant assessed as overwintered female mortality at 16.6 g/ha treated for 1 hr measured after 3 days relative to control. The class given is functional.
In test [4] the test system is Cacopsylla melanoneura. The test can be described thus: Insecticidal activity against adult of Cacopsylla melanoneura in apple plant assessed as reduction of progeny per female at 16.6 g/ha treated for 7 days measured after 7 days. In kind it is functional, organism-based.
Test [5] has as its system Cacopsylla melanoneura. Nature of the test: Insecticidal activity against adult of Cacopsylla melanoneura in apple plant assessed as reduction of progeny per female at 16.6 g/ha treated for 14 days measured after 7 days. In kind it is functional, organism-based.
Test [6] concerns Cacopsylla melanoneura. The test can be described thus: Insecticidal activity against adult of Cacopsylla melanoneura in apple plant assessed as overwintered female mortality at 16.6 g/ha treated for 14 days measured after 1 day relative to control. In kind it is functional.
Test [7] concerns Cacopsylla melanoneura. The test can be described thus: Insecticidal activity against adult of Cacopsylla melanoneura in apple plant assessed as overwintered female mortality at 16.6 g/ha treated for 1 hr measured after 1 day relative to control. In kind it is functional.
Test [8] concerns Cacopsylla melanoneura. Nature of the test: Insecticidal activity against adult of Cacopsylla melanoneura in apple plant assessed as overwintered female mortality at 16.6 g/ha treated for 7 days measured after 1 day relative to control. The class given is functional.
Test [9] has as its system Cacopsylla melanoneura. Nature of the test: Insecticidal activity against young stage of Cacopsylla melanoneura in apple plant assessed as mortality at 16.6 g/ha treated for 14 days measured after 7 days relative to control. The class given is functional.
For test [10], the system named is Cacopsylla melanoneura. The test can be described thus: Insecticidal activity against adult of Cacopsylla melanoneura in apple plant assessed as overwintered female mortality at 16.6 g/ha treated for 14 days measured after 3 days relative to control. The class given is functional.
The test system of test [11] is Cacopsylla melanoneura. The test can be described thus: Insecticidal activity against adult of Cacopsylla melanoneura in apple plant assessed as reduction of progeny per female at 16.6 g/ha treated for 1 hr measured after 7 days. In kind it is functional, organism-based.
For test [12], the system named is Cacopsylla melanoneura. Nature of the test: Insecticidal activity against young stage of Cacopsylla melanoneura in apple plant assessed as mortality at 16.6 g/ha treated for 1 hr measured after 7 days relative to control. In kind it is functional.
Test [13] has as its system Cacopsylla melanoneura. Nature of the test: Insecticidal activity against adult of Cacopsylla melanoneura in apple plant assessed as overwintered female mortality at 787.5 g/ha treated for 7 days measured after 1 day relative to control. The class given is functional.
Test [14] concerns Cacopsylla melanoneura. Nature of the test: Insecticidal activity against adult of Cacopsylla melanoneura in apple plant assessed as overwintered female mortality at 787.5 g/ha treated for 14 days measured after 3 days relative to control. The class given is functional.
Test [15] concerns Cacopsylla melanoneura. The test can be described thus: Insecticidal activity against young stage of Cacopsylla melanoneura in apple plant assessed as mortality at 787.5 g/ha treated for 7 days measured after 7 days relative to control. The class given is functional.
The subject of test [16] is Cacopsylla melanoneura. The test can be described thus: Insecticidal activity against adult of Cacopsylla melanoneura in apple plant assessed as overwintered female mortality at 787.5 g/ha treated for 14 days measured after 1 day relative to control. In kind it is functional.
For test [17], the system named is Cacopsylla melanoneura. The test can be described thus: Insecticidal activity against young stage of Cacopsylla melanoneura in apple plant assessed as mortality at 787.5 g/ha treated for 1 hr measured after 7 days relative to control. The class given is functional.
Test [18] concerns Cacopsylla melanoneura. Nature of the test: Insecticidal activity against adult of Cacopsylla melanoneura in apple plant assessed as overwintered female mortality at 787.5 g/ha treated for 1 hr measured after 1 day relative to control. The class given is functional.
Test [19] has as its system Cacopsylla melanoneura. Nature of the test: Insecticidal activity against adult of Cacopsylla melanoneura in apple plant assessed as overwintered female mortality at 787.5 g/ha treated for 7 days measured after 3 days relative to control. The class given is functional.
Test [20] deals with Cacopsylla melanoneura. The test can be described thus: Insecticidal activity against adult of Cacopsylla melanoneura in apple plant assessed as reduction of progeny per female at 787.5 g/ha treated for 14 days measured after 7 days. The class given is functional, organism-based.
Test [21] concerns Cacopsylla melanoneura. The test can be described thus: Insecticidal activity against adult of Cacopsylla melanoneura in apple plant assessed as reduction of progeny per female at 787.5 g/ha treated for 7 days measured after 7 days. In kind it is functional, organism-based.
For test [22], the system named is Cacopsylla melanoneura. The test can be described thus: Insecticidal activity against adult of Cacopsylla melanoneura in apple plant assessed as overwintered female mortality at 787.5 g/ha treated for 1 hr measured after 3 days relative to control. The class given is functional.
Test [23] deals with Cacopsylla melanoneura. Nature of the test: Insecticidal activity against young stage of Cacopsylla melanoneura in apple plant assessed as mortality at 787.5 g/ha treated for 14 days measured after 7 days relative to control. The class given is functional.
Test [24] has as its system Cacopsylla melanoneura. The test can be described thus: Insecticidal activity against adult of Cacopsylla melanoneura in apple plant assessed as reduction of progeny per female at 787.5 g/ha treated for 1 hr measured after 7 days. The class given is functional, organism-based.

SMILES strings stand for the structures. The source made the active and inactive calls. The calls are words filed in the database; no cut-off is given here.

With `CC[C@H](C)[C@H]1O[C@]2(C=C[C@@H]1C)C[C@@H]1C[C@@H](C/C=C(\C)[C@@H](O[C@H]3C[C@H](OC)[C@@H](O[C@H]4C[C@H](OC)[C@@H](O)[C@H](C)O4)[C@H](C)O3)[C@@H](C)/C=C/C=C3\CO[C@@H]4[C@H](O)C(C)=C[C@@H](C(=O)O1)[C@]34O)O2.CO[C@H]1C[C@H](O[C@H]2[C@H](C)O[C@@H](O[C@@H]3/C(C)=C/C[C@@H]4C[C@@H](C[C@]5(C=C[C@H](C)[C@@H](C(C)C)O5)O4)OC(=O)[C@@H]4C=C(C)[C@@H](O)[C@H]5OC/C(=C\C=C\[C@@H]3C)[C@]54O)C[C@@H]2OC)O[C@@H](C)[C@@H]1O` [ABAMECTIN], the Activity in the test with Cacopsylla melanoneura [1] is listed as 30%; in the test on Cacopsylla melanoneura [2] it was 95%; in the test on Cacopsylla melanoneura [3] it was 36.7%; in the test with Cacopsylla melanoneura [6] it was 43.3%; with Cacopsylla melanoneura [7], 33.3%; with Cacopsylla melanoneura [8], 16.7%. The Activity in the test with Cacopsylla melanoneura [9] is 71.7%; in the test on Cacopsylla melanoneura [10], 60%; in the test with Cacopsylla melanoneura [12] it was 75%. Further, the result in the test with Cacopsylla melanoneura [4], with Cacopsylla melanoneura [5] and in the test on Cacopsylla melanoneura [11] was Active.

Consider `CCOP(=S)(OCC)Oc1nc(Cl)c(Cl)cc1Cl` [CHLORPYRIFOS], for which the Activity with Cacopsylla melanoneura [13] is listed as 100%; in the test on Cacopsylla melanoneura [14], 93.3%; in the test with Cacopsylla melanoneura [15] it was 100%; in the test on Cacopsylla melanoneura [16], 93.3%; in the test with Cacopsylla melanoneura [17] it was 98.3%; with Cacopsylla melanoneura [18] it was 100%. Also, the Activity with Cacopsylla melanoneura [19], with Cacopsylla melanoneura [22] and in the test with Cacopsylla melanoneura [23] was 100% throughout. For the same molecule, the result in the test on Cacopsylla melanoneura [20], with Cacopsylla melanoneura [21] and in the test on Cacopsylla melanoneura [24] was Active.
